Experimental data as given in paper PMC9081329, “Pharmacokinetics, Mass Balance, Excretion, and Tissue Distribution of Plasmalogen Precursor PPI-1011” (Frontiers in Cell and Developmental Biology, 2022).
Like-named read-outs stand apart in the source and are kept apart here.

How the values were obtained:
[1] = Formulation concentration; type: physicochemical
[2] = parameters: method as in manuscript in preparation; details: doses up to 1,000 mg/kg in adult rats; ref manuscript in preparation; cited from earlier work
[3] = parameters: method as in manuscript in preparation; details: 28-day repeat dosing at 400 mg/kg in primates; ref manuscript in preparation; cited from earlier work

CC/C=C\C/C=C\C/C=C\C/C=C\C/C=C\C/C=C\CCC(=O)OC(COCCCCCCCCCCCCCCCC)COC(=O)CCCCC1CCSS1 (stereo not drawn) [PPI-1011, 1-O-hexadecyl-2-O-cis-4,7, 10, 13, 16, 19-docosahexaenoyl-3-O-lipoyl glycerol]
Concentration amenable to formulation [1]: ≤ 500000 µg/mL
Toxicity or adverse effects [2]: no toxicity or adverse effects
Toxicity or adverse effects [3]: no toxicity or adverse effects
